{
  "source": "the supplement of paper PMC6045584",
  "note": "± gives the standard deviation of the averaged measurements.",
  "data": [
    {"compound": "CC[C@@]1(O)C(=O)OCc2c1cc1n(c2=O)Cc2cc3ccccc3nc2-1 [CAMPTOTHECIN]", "assay": "surviving fraction relative to DMSO-only wells; higher = less growth inhibition", "details": "5 nM; exposure time: 5 days", "how_it_was_run": "(§1)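 Inhibitors at 0.5, 1, 5, 10, 50, 100, 500 and 1000 nM were applied continuously for five days to tumour cell lines seeded in log phase at 250–500 cells per well in 384-well plates 24 hours earlier. Viability was measured by CellTiter-Glo luminescence and expressed as surviving fraction relative to the median of DMSO-only wells. Luminescence was taken after 10 minutes at room temperature.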", "values": [
      {"test system": "CAL51 BREAST", "surviving fraction": "0.797 ± 0.027"},
      {"test system": "CAL72 BONE", "surviving fraction": "0.955 ± 0.034"},
      {"test system": "CAL120 BREAST", "surviving fraction": "0.409 ± 0.033"},
      {"test system": "CASKI CERVIX", "surviving fraction": "0.575 ± 0.054"},
      {"test system": "COLO320DM LARGE INTESTINE", "surviving fraction": "0.458 ± 0.026"},
      {"test system": "DU4475 BREAST", "surviving fraction": "0.28 ± 0.055"},
      {"test system": "G292 BONE", "surviving fraction": "0.591 ± 0.037"},
      {"test system": "H23 LUNG", "surviving fraction": "0.56 ± 0.021"},
      {"test system": "HCC38 BREAST", "surviving fraction": "0.563 ± 0.16"},
      {"test system": "HCC1806 BREAST", "surviving fraction": "0.269 ± 0.054"},
      {"test system": "HOS BONE", "surviving fraction": "0.758 ± 0.011"},
      {"test system": "HOSMNG BONE", "surviving fraction": "0.863 ± 0.1"},
      {"test system": "HSSYII SYNOVIAL", "surviving fraction": "0.213 ± 0.011"},
      {"test system": "HU09 BONE", "surviving fraction": "0.311 ± 0.065"},
      {"test system": "HUO3N1 BONE", "surviving fraction": "0.639 ± 0.046"},
      {"test system": "JIMT1 BREAST", "surviving fraction": "0.8377 ± 0.0059"},
      {"test system": "LNCAP PROSTATE", "surviving fraction": "0.254 ± 0.017"},
      {"test system": "MDAMB134 BREAST", "surviving fraction": "0.66 ± 0.016"},
      {"test system": "MDAMB231 BREAST", "surviving fraction": "0.803 ± 0.04"},
      {"test system": "MDAMB361 BREAST", "surviving fraction": "0.747 ± 0.096"},
      {"test system": "MDAMB436 BREAST", "surviving fraction": "0.391 ± 0.047"},
      {"test system": "MDAMB468 BREAST", "surviving fraction": "0.782 ± 0.094"},
      {"test system": "MHM BONE", "surviving fraction": "0.94 ± 0.026"},
      {"test system": "NCIH441 LUNG", "surviving fraction": "0.743 ± 0.019"},
      {"test system": "NY BONE", "surviving fraction": "0.648 ± 0.026"},
      {"test system": "OS25HAL BONE", "surviving fraction": "0.475 ± 0.03"},
      {"test system": "OSHN BONE", "surviving fraction": "0.47 ± 0.079"},
      {"test system": "SKBR3 BREAST", "surviving fraction": "0.757 ± 0.1"},
      {"test system": "SUM149.B1*.S BREAST", "surviving fraction": "0.692 ± 0.075"}
    ]},
    {"compound": "CC[C@@]1(O)C(=O)OCc2c1cc1n(c2=O)Cc2cc3ccccc3nc2-1 [CAMPTOTHECIN]", "assay": "surviving fraction relative to DMSO-only wells; higher = less growth inhibition", "details": "10 nM; exposure time: 5 days", "how_it_was_run": "as §1", "values": [
      {"test system": "22RV1 PROSTATE", "surviving fraction": "0.275 ± 0.022"},
      {"test system": "93VU HEADNECK", "surviving fraction": "0.789 ± 0.063"},
      {"test system": "A549 LUNG", "surviving fraction": "0.681 ± 0.018"},
      {"test system": "CAL51 BREAST", "surviving fraction": "0.52 ± 0.014"},
      {"test system": "CAL72 BONE", "surviving fraction": "0.762 ± 0.12"},
      {"test system": "CAL120 BREAST", "surviving fraction": "0.314 ± 0.035"},
      {"test system": "CASKI CERVIX", "surviving fraction": "0.38 ± 0.035"},
      {"test system": "COLO320DM LARGE INTESTINE", "surviving fraction": "0.38 ± 0.023"},
      {"test system": "DU4475 BREAST", "surviving fraction": "0.135 ± 0.018"},
      {"test system": "G292 BONE", "surviving fraction": "0.383 ± 0.014"},
      {"test system": "H23 LUNG", "surviving fraction": "0.269 ± 0.0046"},
      {"test system": "HCC38 BREAST", "surviving fraction": "0.351 ± 0.12"},
      {"test system": "HCC1806 BREAST", "surviving fraction": "0.128 ± 0.015"},
      {"test system": "HOS BONE", "surviving fraction": "0.25 ± 0.021"},
      {"test system": "HOSMNG BONE", "surviving fraction": "0.875 ± 0.042"},
      {"test system": "HSSYII SYNOVIAL", "surviving fraction": "0.12 ± 0.0066"},
      {"test system": "HU09 BONE", "surviving fraction": "0.0673 ± 0.011"},
      {"test system": "HUO3N1 BONE", "surviving fraction": "0.373 ± 0.057"},
      {"test system": "JIMT1 BREAST", "surviving fraction": "0.655 ± 0.048"},
      {"test system": "LNCAP PROSTATE", "surviving fraction": "0.164 ± 0.01"},
      {"test system": "MDAMB134 BREAST", "surviving fraction": "0.587 ± 0.031"},
      {"test system": "MDAMB231 BREAST", "surviving fraction": "0.603 ± 0.019"},
      {"test system": "MDAMB361 BREAST", "surviving fraction": "0.723 ± 0.066"},
      {"test system": "MDAMB436 BREAST", "surviving fraction": "0.318 ± 0.048"},
      {"test system": "MDAMB468 BREAST", "surviving fraction": "0.546 ± 0.056"},
      {"test system": "MHM BONE", "surviving fraction": "0.927 ± 0.025"},
      {"test system": "NCIH441 LUNG", "surviving fraction": "0.474 ± 0.031"},
      {"test system": "NY BONE", "surviving fraction": "0.184 ± 0.012"},
      {"test system": "OS25HAL BONE", "surviving fraction": "0.145 ± 0.022"},
      {"test system": "OSHN BONE", "surviving fraction": "0.108 ± 0.018"},
      {"test system": "SKBR3 BREAST", "surviving fraction": "0.529 ± 0.029"},
      {"test system": "SUM149.B1*.S BREAST", "surviving fraction": "0.301 ± 0.021"}
    ]},
    {"compound": "CC[C@@]1(O)C(=O)OCc2c1cc1n(c2=O)Cc2cc3ccccc3nc2-1 [CAMPTOTHECIN]", "assay": "surviving fraction relative to DMSO-only wells; higher = less growth inhibition", "details": "50 nM; exposure time: 5 days", "how_it_was_run": "as §1", "values": [
      {"test system": "22RV1 PROSTATE", "surviving fraction": "0.162 ± 0.16"},
      {"test system": "93VU HEADNECK", "surviving fraction": "0.464 ± 0.021"},
      {"test system": "A549 LUNG", "surviving fraction": "0.2 ± 0.0097"},
      {"test system": "CAL51 BREAST", "surviving fraction": "0.0468 ± 0.0037"},
      {"test system": "CAL72 BONE", "surviving fraction": "0.18 ± 0.022"},
      {"test system": "CAL120 BREAST", "surviving fraction": "0.182 ± 0.011"},
      {"test system": "CASKI CERVIX", "surviving fraction": "0.0697 ± 0.0057"}
    ]}
  ]
}
